We go through six molecules from patent publication US11591306B2, “Vitamin E-based amphipathic compound, and use thereof” (Industry-University Cooperation Foundation Hanyang …, priority 2017, dated 2023).

For series [1], the target named is T1, MelBSt (melibiose permease) (Salmonella typhimurium, UniProt P30878).
T1 construct: made in house; host or cells: E. coli DW2 (ΔmelB and ΔlacZY), plasmid pK95ΔAHB/WT MelBSt/CH10
Description: MelBSt extraction/solubilization and thermal stability, SDS-PAGE and Western blotting. Here is the method: Specifically, Salmonella typhimurium MelBSt (melibiose permease) having a 10 His tag at the C-terminus was expressed in E. coli DW2 cells (ΔmelB and ΔlacZY) using a pK95ΔAHB/WT MelBSt/CH10 plasmid. Cell growth and membrane preparation were carried out according to the methods disclosed in the paper written by A. S. Ethayathulla et al. (Nat. Commun. 2014, 5, 3009). A protein assay was performed using a Micro BCA kit (Thermo Scientific, Rockford, Ill.). MelBSt stability in VEGs or DDM was evaluated using the protocol disclosed in Nat. Methods 2010, 7, 1003-1008, written by P. S. Chae et al. A MelBSt-containing membrane sample (the final protein concentration was 10 mg/mL) was incubated in a solubilization buffer containing 1.5% (w/v) DDM or VEGs (50 mM sodium phosphate, pH 7.5, 200 mM NaCl, 10% glycerol, 20 mM melibiose) at two different temperatures (0 and 23° C.) for 90 minutes. To remove an insoluble material, ultracentrifugation was performed using a Beckman Optima™ MAX ultracentrifuge equipped with a TLA-100 rotor at 355,590 g and 4° C. for 30 minutes. […] The loaded samples were analyzed by SDS-15% PAGE, and then visualized by immunoblotting with a Penta-His-HRP antibody (Qiagen, Germantown, Md.).
To assess the thermal stability of MelBSt in various amphipathic molecules, MelBSt extracted with individual amphipathic molecules at 23° C. was subjected to additional thermal treatment at three different temperature (45, 55 and 65° C.) and ultracentrifugation, followed by SDS-15% PAGE and Western blotting. MelBSt was detected using a SuperSignalWest Pico chemiluminescent substrate by an ImageQuant LAS 4000 Biomolecular Imager (GE Healthcare Life Science).

Series [2] in a line: Critical micelle concentration by hydrophobic fluorescence staining with diphenylhexatriene (DPH). The class given is physicochemical. The conditions noted are these: aqueous solution. Here is the method:
A method of measuring CMC is not particularly limited, and may be a method widely known in the art, for example, fluorescent staining using diphenylhex riene (DPH).
(§1) To identify the properties of VEGs synthesized according to the synthetic methods of Preparation Examples 1 to […] molecular weights (M.W.) and critical micellar concentrations (CMCs) of VEGs, and the hydrodynamic radii (Rh) of formed micelles were measured.
(§2) Specifically, the CMCs were measured using hydrophobic fluorescence staining and diphenylhexatriene (DPH), and the hydrodynamic radii (Rh) of the micelles formed by each formulation were measured by dynamic light scattering (DLS).

Series [3] in a line: Hydrodynamic radius of micelles by dynamic light scattering (DLS). The class given is physicochemical. The settings on record: at 1.0 wt %. Here is the method: A method of measuring the radius of a micelle is not particularly limited, but may be a method well known in the art, for example, dynamic light scattering (DLS).
as §1, §2

Series [4] addresses T2, β2AR-Gs complex (Homo sapiens, UniProt P07550).
T2 construct: made in house
The settings on record: DDM-purified complex, previous study; cited from earlier work.

Series [5] deals with T3, UapA (Emericella nidulans, UniProt Q07307, G411V). The series is described as follows: UapA extraction and thermal stability by fluorescence size exclusion chromatography (FSEC). Also noted: made in house. The settings on record: for UapA integrity after thermal treatment (FSEC): 45° C. for 10 minutes; for Ability to extract and solubilize UapA (FSEC): before thermal treatment, 60 minutes on ice. Here is the method:
The membrane containing UapA was resuspended in a pH 8.0 PBS buffer containing 10 mM imidazole, 150 mM NaCl and 10% glycerol, and a protein concentration was measured. The membrane was adjusted to a concentration of 1 mg/ml, and a 1 ml aliquot was incubated for 60 minutes with each of 1.0 mL of DDM, LMNG, VEG-3 and VEG-5, on ice under stirring. A 100 uL aliquot was obtained from each tube and subjected to ultracentrifugation for 10 minutes at 150,000 g, and then fluorescent SEC (FSEC) was performed on each sample. The remaining soluble fractions were incubated for 10 minutes at 45° C. The thermally-treated samples were applied to FSEC to monitor the integrity of a transporter. FSEC was performed using a Superose6 column (GE Healthcare) equilibrated with a buffer containing an appropriate preparation (DDM, LMNG, VEG-3 or VEG-5).

The target of series [6] is T4, β2AR (Homo sapiens, UniProt P07550).
T4 construct: made in house; host or cells: Sf9 insect cells, baculovirus
T4 sequence (P07550 whole entry): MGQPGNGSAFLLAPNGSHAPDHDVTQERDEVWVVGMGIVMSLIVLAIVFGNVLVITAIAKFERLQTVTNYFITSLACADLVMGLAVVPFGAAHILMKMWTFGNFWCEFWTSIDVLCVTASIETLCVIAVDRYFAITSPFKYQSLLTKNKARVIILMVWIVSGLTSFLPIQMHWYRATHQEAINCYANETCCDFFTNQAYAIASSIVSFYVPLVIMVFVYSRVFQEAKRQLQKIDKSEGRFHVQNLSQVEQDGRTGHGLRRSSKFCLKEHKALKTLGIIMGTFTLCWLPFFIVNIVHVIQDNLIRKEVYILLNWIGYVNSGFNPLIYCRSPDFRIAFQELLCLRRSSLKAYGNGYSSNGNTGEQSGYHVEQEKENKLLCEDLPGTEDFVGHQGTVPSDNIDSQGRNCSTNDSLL
The series is described as follows: β2AR stability, [3H]-dihydroalprenolol (DHA) ligand binding. The settings on record: CMC+0.2 wt %, 10 days at room temperature. Here is the method:
A receptor was expressed in Sf9 insect cells infected with Baculovirus and solubilized in 1% DDM. The DDM-solubilized receptor was purified by alprenolol-sepharose in the presence of 0.01% cholesteryl succinate (CHS). β2AR purified by DDM was diluted with a buffer containing DDM or VEGs (VEG-1, VEG-2, VEG-3 and VEG-5) to reach the final concentration of CMC+0.2 wt %. β2AR solubilized in each compound was stored for 10 days at room temperature, and the ligand binding ability of the receptor was measured at regular intervals by incubating the receptor with 10 nM radioactive [^3H]-dihydroalprenolol (DHA) for 30 minutes at room temperature. The mixture was loaded into a G-50 column, and a supernatant was collected using a certain amount of binding buffer (supplemented with […] pH 7.5, 100 mM NaCl, 0.5 mg/ml BSA). In addition, a 15 ml scintillation fluid was added. Receptor-binding [^3H]-DHA was measured using a scintillation counter (Beckman).

For series [7], the target named is T2, β2AR-Gs complex. The settings on record: complex purified by DDM, previous study; cited from earlier work.
Series [8] concerns the target T3, UapA. The series is described as follows: UapA thermal stability, CPM assay. Also noted: made in house; host or cells: Saccharomyces cerevisiae FGY217 membranes. The conditions noted are these: CMC+0.2 wt %, 40° C. for 120 minutes. Here is the method: UapAG411VΔ1-11 (hereinafter, referred to as “UapA”) was expressed in a Saccharomyces cerevisiae FGY217 strain by GFP fusion, and isolated into a sample buffer (20 mM Tris (pH 7.5), 150 mM NaCl, 0.03% DDM, 1 mM xanthine), which was performed according to the method disclosed in the paper written by J. Leung et al. (Mol. Menthr. Biol. 2013, 30, 32-42). The protein was concentrated to be approximately 10 mg/ml using a 100 kDa molecular weight cutoff filter (Millipore). The protein was diluted 1:150 with a buffer containing DDM, VEG (VEG-1, VEG-2, VEG-3, VEG-4 or VEG-5) or LMNG at CMC+0.2 wt % in Greiner 96. CPM dye (Invitrogen) stored in DMSO (Sigma) was diluted with a dye buffer (20 mM Tris (pH 7.5), 150 mM NaCl, 0.03% DDM, 5 mM EDTA), and 3 μL of the diluted dye was added to an individual protein sample. The reaction mixture was treated at a constant temperature of 40° C. for 120 minutes. A fluorescence emission intensity was monitored using a microplate spectrofluorometer set to excitation and emission wavelengths of 387 and 463 nm, respectively. The maximum fluorescence value was used to calculate the percentage of a protein folded during incubation. The relative amount of the folded protein was plotted over time using GraphPad Prism.

The mark [9] stands for this setting: 1.5 wt %, extracted at 23° C., then 55° C.

Values joined by “and” are separate entries in the source; they are usually repeats but may differ in a detail not shown here. Equal entries are not always repeated. “Also recorded” adds a separate entry of the source.

T1 sequence (P30878 whole entry): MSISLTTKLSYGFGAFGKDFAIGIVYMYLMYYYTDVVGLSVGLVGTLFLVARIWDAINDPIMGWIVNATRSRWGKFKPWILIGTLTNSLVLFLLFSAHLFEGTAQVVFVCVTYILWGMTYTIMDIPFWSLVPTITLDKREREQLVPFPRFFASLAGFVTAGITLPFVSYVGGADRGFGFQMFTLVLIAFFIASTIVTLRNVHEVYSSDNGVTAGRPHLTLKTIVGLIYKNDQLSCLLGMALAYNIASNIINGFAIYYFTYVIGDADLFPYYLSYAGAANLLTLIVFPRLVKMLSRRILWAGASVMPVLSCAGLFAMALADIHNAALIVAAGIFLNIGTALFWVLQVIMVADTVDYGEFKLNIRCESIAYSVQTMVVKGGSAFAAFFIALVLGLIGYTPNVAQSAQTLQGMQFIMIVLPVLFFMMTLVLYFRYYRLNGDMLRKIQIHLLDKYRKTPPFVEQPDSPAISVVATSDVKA
T3 sequence (Q07307 12-574 G411V): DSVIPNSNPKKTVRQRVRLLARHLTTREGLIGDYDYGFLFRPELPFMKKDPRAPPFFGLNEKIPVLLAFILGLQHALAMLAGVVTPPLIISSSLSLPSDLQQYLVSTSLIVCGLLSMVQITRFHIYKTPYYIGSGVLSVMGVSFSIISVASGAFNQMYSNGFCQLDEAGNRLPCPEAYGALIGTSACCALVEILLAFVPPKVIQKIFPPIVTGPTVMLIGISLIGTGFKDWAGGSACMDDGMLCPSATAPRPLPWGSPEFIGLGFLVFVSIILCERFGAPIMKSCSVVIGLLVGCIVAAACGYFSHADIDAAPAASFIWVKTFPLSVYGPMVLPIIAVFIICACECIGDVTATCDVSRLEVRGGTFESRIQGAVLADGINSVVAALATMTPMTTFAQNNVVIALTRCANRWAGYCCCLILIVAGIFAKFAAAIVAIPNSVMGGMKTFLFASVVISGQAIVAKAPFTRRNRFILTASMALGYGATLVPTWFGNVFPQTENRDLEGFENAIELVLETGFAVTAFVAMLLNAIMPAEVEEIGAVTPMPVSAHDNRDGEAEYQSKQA
T2 sequence (P07550 whole entry): as the sequence (P07550 whole entry) above
T2 sequence (P63092 whole entry partner): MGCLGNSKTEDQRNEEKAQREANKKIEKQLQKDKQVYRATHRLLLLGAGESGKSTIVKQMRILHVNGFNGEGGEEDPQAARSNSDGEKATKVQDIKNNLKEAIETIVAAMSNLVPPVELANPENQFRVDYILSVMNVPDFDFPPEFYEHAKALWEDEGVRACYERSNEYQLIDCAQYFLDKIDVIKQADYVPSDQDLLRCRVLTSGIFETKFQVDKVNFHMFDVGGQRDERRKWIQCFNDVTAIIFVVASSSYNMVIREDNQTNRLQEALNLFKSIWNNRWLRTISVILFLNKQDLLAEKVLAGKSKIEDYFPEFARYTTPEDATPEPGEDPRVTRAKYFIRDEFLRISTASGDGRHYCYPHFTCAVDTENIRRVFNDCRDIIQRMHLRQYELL
T2 sequence (P62873 whole entry partner): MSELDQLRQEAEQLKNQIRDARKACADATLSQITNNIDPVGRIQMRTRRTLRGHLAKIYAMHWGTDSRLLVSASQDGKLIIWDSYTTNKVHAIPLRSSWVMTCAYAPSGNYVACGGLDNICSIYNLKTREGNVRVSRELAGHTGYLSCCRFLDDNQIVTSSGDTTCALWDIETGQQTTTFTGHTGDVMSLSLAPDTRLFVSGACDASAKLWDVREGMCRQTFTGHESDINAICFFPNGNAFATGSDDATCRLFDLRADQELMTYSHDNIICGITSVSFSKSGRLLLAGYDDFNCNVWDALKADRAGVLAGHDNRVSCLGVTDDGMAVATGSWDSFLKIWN
T2 sequence (P59768 2-68 partner limits assumed): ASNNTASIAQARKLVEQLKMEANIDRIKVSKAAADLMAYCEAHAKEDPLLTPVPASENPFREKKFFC

Consider `Cc1c(C)c2c(c(C)c1OCCC(CO[C@@H]1OC(CO)[C@@H](O[C@H]3OC(CO)[C@@H](O)[C@H](O)C3O)[C@H](O)C1O)CO[C@@H]1OC(CO)[C@@H](O[C@H]3OC(CO)[C@@H](O)[C@H](O)C3O)[C@H](O)C1O)CCC(C)(CCCC(C)CCCC(C)CCCC(C)C)O2` (stereo partly shown) [VEG-4], for which the MelBSt solubilization efficiency entry in series [1] (setting [9]) is listed as “remained intact”. The MelBSt solubilization ability entry in series [1] (1.5 wt %, extracted at 23° C., then 65° C.) was “very excellent protein solubilization ability”. For the same molecule, the “MelBSt transporter solubilization ability in the thermal stability experiment” value in series [1] (elevated temperatures (overall)) was “higher transporter solubilization ability than DDM”. For the same molecule, in series [2], the “CMC” value was around 0.003 mM and the “CMC (wt %)” value is given as around 0.0003 wt %. Also, the “Rh (nm), hydrodynamic radius of micelles” value in series [3] was 5.1 ± 0.1 nm.

Regarding `CCCCCCCCCCCCO[C@@H]1O[C@H](CO)[C@@H](O[C@H]2O[C@H](CO)[C@@H](O)[C@H](O)[C@H]2O)[C@H](O)[C@H]1O` [DDM, n-dodecyl-β-D-maltopyranoside, reference compound], the “MelBSt extraction/solubilization efficiency from the cell membrane” value in series [1] (1.5 wt % detergent, 0° C. and 23° C., 90 minutes) was “more efficient; also recorded: higher protein extraction efficiency than VEGs”. The MelBSt solubilization efficiency result in series [1] (1.5 wt %, extracted at 23° C., then 45° C.) is recorded as “almost similar efficiencies”. Moreover, the MelBSt solubilization efficiency entry in series [1] (setting [9]) is listed as “significant decrease”. Besides, in series [2], the “CMC” value is 0.17 mM and 0.170 mM; the “CMC (wt %)” value was 0.0087 wt %. The “Rh (nm), hydrodynamic radius of micelles” value in series [3] was 3.4 ± 0.0 nm. Besides, the “Homogeneity of β2AR-Gs complex particles (EM)” value in series [4] is reported as “aggregation of particles”. In series [5], the “UapA integrity after thermal treatment (FSEC)” value (“UapA integrity” below) was “considerably degraded”; the “Ability to extract and solubilize UapA (FSEC)” value (“Ability … (FSEC)” below) was “superior to VEG-3 and VEG-5”. The “Long-term β2AR activity ([3H]-DHA binding)” value (from here on “Long-term β2AR activity”) in series [6] was “rapid loss of activity over time”. In addition, the “Integrity of the purified β2AR-Gs complex” value in series [7] is “significant dissociation between the receptor and Gs protein even after 2 day-incubation”.

In the case of `CCCCCCCCCCC(CCCCCCCCCC)(CO[C@@H]1O[C@H](CO)[C@@H](O[C@H]2O[C@H](CO)[C@@H](O)[C@H](O)[C@H]2O)[C@H](O)[C@H]1O)CO[C@@H]1O[C@H](CO)[C@@H](O[C@H]2O[C@H](CO)[C@@H](O)[C@H](O)[C@H]2O)[C@H](O)[C@H]1O` [LMNG, reference compound], in series [5], the “UapA integrity” value is listed as “considerably degraded”; the “Ability … (FSEC)” value was “superior to VEG-3 and VEG-5”.

With `Cc1c(C)c2c(c(C)c1OCCOCC(CO[C@@H]1OC(CO)[C@@H](O)[C@H](O)C1O)(CO[C@@H]1OC(CO)[C@@H](O)[C@H](O)C1O)CO[C@@H]1OC(CO)[C@@H](O)[C@H](O)C1O)CCC(C)(CCCC(C)CCCC(C)CCCC(C)C)O2` (stereo partly shown) [VEG-2], in series [2], the “CMC” value is recorded as around 0.003 mM and the “CMC (wt %)” value is reported as around 0.0003 wt %. Moreover, in series [3], the “Rh (nm), hydrodynamic radius of micelles” value was determined as 4.7 ± 0.1 nm. For the same molecule, the “Long-term β2AR activity” value in series [6] is “consistently maintained during incubation for 10 days”.

For the molecule `Cc1c(C)c2c(c(C)c1O[C@@H]1OC(CO[C@@H]3OC(CO)[C@@H](O)[C@H](O)C3O)[C@@H](O[C@@H]3OC(CO)[C@@H](O)[C@H](O)C3O)[C@H](O[C@@H]3OC(CO)[C@@H](O)[C@H](O)C3O)C1O[C@@H]1OC(CO)[C@@H](O)[C@H](O)C1O)CCC(C)(CCCC(C)CCCC(C)CCCC(C)C)O2` (stereo partly shown) [VEG-5], the MelBSt solubilization efficiency result in series [1] (setting [9]) is on record as “remained intact”. Also, in series [2], the “CMC” value is around 0.002 mM and the “CMC (wt %)” value is on record as around 0.0002 wt %. Moreover, the “Rh (nm), hydrodynamic radius of micelles” value in series [3] stood at 3.9 ± 0.1 nm. In series [5], the “UapA integrity” value is reported as “maintained protein integrity”; the “Ability … (FSEC)” value was “LMNG and DDM were superior to VEG-3 and VEG-5”. In series [6], the “Long-term β2AR activity” value was “rapid loss of activity over time”. For the same molecule, the “Ability to maintain UapA in a structurally stable state (CPM assay)” value in series [8] is recorded as “excellent ability to maintain UapA in a structurally stable state”.

Consider `Cc1c(C)c2c(c(C)c1OCC(CO[C@@H]1OC(CO)[C@@H](O)[C@H](O)C1O)(CO[C@@H]1OC(CO)[C@@H](O)[C@H](O)C1O)CO[C@@H]1OC(CO)[C@@H](O)[C@H](O)C1O)CCC(C)(CCCC(C)CCCC(C)CCCC(C)C)O2` (stereo partly shown) [VEG-1], for which, in series [2], the “CMC” value was around 0.002 mM and the “CMC (wt %)” value was around 0.0002 wt %. In addition, the “Rh (nm), hydrodynamic radius of micelles” value in series [3] came out at 4.2 ± 0.1 nm.
